Counter-ions that a name gives are not always drawn.
| SMILES | melting point |
| --- | --- |
| Nc1nc2c(OCCOc3nccnc3N3CCNCC3)cccc2o1 (as salt: fumarate) [Example 21, 4-(2-{[3-(1-piperazinyl)-2-pyrazinyl]oxy}ethoxy)-1,3-benzoxazol-2-amine] | 138 to 140 °C |
| CN(CCOc1ccccc1)c1nccnc1N1CCNCC1 (as salt: fumarate) [Example 47, N-Methyl-N-(2-phenoxyethyl)-3-(1-piperazinyl)-2-pyrazinamine] | 154 °C |
| COc1ccc(F)cc1OCCOc1nccnc1N1CCNCC1 (as salt: fumarate) [Example 100, 2-[2-(5-Fluoro-2-methoxyphenoxy)ethoxy]-3-(1-piperazinyl)pyrazine] | 172 to 176 °C |
| Fc1cccc(OCCOc2nccnc2N2CCNCC2)c1F (as salt: fumarate) [Example 105, 2-[2-(2,3-Difluorophenoxy)ethoxy]-3-(1-piperazinyl)pyrazine] | 125 to 130 °C |
| Fc1cc(F)c(F)c(OCCOc2nccnc2N2CCNCC2)c1 (as salt: fumarate) [Example 106, 2-[2-(2,3,5-Trifluorophenoxy)ethoxy]-3-(1-piperazinyl)pyrazine] | 158 to 159 °C |
| c1ccc(Nc2cccc(OCCOc3nccnc3N3CCNCC3)c2)cc1 (as salt: fumarate) [Example 107, N-Phenyl-3-(2-{[3-(1-piperazinyl)-2-pyrazinyl]oxy}ethoxy)aniline] | 78 to 81 °C |
| c1ccc2c(c1)OC(COc1nccnc1N1CCNCC1)CS2 (stereo not shown) (as salt: fumarate) [Example 132, 2-(2,3-Dihydro-1,4-benzoxathiin-2-ylmethoxy)-3-(1-piperazinyl)pyrazine] | 178 to 179 °C |
| Cc1ccc(OCCOc2nccnc2N2CCNC[C@H]2C)cn1 (as salt: fumarate) [Example 176, (2R)-2-Methyl-1-(3-{2-[(6-methyl-3-pyridinyl)oxy]ethoxy}-2-pyrazinyl)piperazine] | 115 °C (dec.) |
| CCC1CNCCN1c1nccnc1OCCOc1cccnc1 (stereo not shown) (as salt: fumarate) [Example 178, 2-Ethyl-1-{3-[2-(3-pyridinyloxy)ethoxy]-2-pyrazinyl}piperazine] | 125 to 127 °C |
| C[C@@H]1CNC[C@H](C)N1c1nccnc1OCCOc1cccnc1 (as salt: fumarate) [Example 179, cis-2,6-Dimethyl-1-{3-[2-(3-pyridinyloxy)ethoxy]-2-pyrazinyl}piperazine] | 157 °C (dec.) |
| Brc1ncccc1OCCOc1nccnc1N1CCNCC1 (as salt: fumarate) [Example 195, 2-{2-[(2-Bromo-3-pyridinyl)oxy]ethoxy}-3-(1-piperazinyl)pyrazine] | 202 °C |
| C[C@@H]1CNCCN1c1nccnc1OCCOc1cccnc1Br (as salt: fumarate) [Example 196, (2R)-1-(3-{2-[(2-Bromo-3-pyridinyl)oxy]ethoxy}-2-pyrazinyl)-2-methylpiperazine] | 154 °C |
| CSc1ncccc1OCCOc1nccnc1N1CCNCC1 (as salt: fumarate) [Example 197, 2-(2-{[2-(Methylsulfanyl)-3-pyridinyl]oxy}ethoxy)-3-(1-piperazinyl)pyrazine] | 201 °C |
| CSc1ncccc1OCCOc1nccnc1N1CCNC[C@H]1C (as salt: fumarate) [Example 198, (2R)-2-Methyl-1-[3-(2-{[2-(methylsulfanyl)-3-pyridinyl]oxy}ethoxy)-2-pyrazinyl]piperazine] | 179 °C |
| CCOc1ncccc1OCCOc1nccnc1N1CCNCC1 (as salt: fumarate) [Example 199, 2-{2-[(2-Ethoxy-3-pyridinyl)oxy]ethoxy}-3-(1-piperazinyl)pyrazine] | 186 °C |
| c1ccc2c(c1)CCC(COc1nccnc1N1CCNCC1)C2 (stereo not shown) (as salt: fumarate) [Example 207, 3-(1-piperazinyl)-2-pyrazinyl 1,2,3,4-tetrahydro-2-naphthalenylmethyl ether] | 186 to 188 °C |
